Source: patent US9528114B2, “Method for amplifying locus in bacterial cell” (DANISCO US INC., priority 2008, dated 2016)

Assays:
[1] = system: BG3594, pDALsub1; test: Sensitivity to β-chloro-D-alanine of strain carrying alr-expressing plasmid, LB agar plates; type: cell-based, Bacillus subtilis; design: key to Resistance (growth) on LB agar plate: +: growth; −: no growth; conditions: for Resistance (growth) on LB agar plate: strain BG3594, pDALsub1
Protocol: (§1) In a first phase, the concentration of β-chloro-D-alanine (CDA) necessary to inhibit growth of B. subtilis was determined by plating dilutions of LB-grown strain BG3594 on LB agar plates containing different concentrations of CDA. […] Other alanine racemase inhibitors, such as cycloserine, could be used instead of CDA.

[2] = system: Bacillus subtilis BG3594; test: Sensitivity threshold to β-chloro-D-alanine, dilutions plated on LB agar plates; type: cell-based; design: key to Resistance (growth) on LB agar plate: +: growth; −: no growth; conditions: for Resistance (growth) on LB agar plate: strain BG3594; for Growth of BG3594 in presence of CDA: LB agar
Protocol: as §1

## N[C@H](CCl)C(=O)O [CDA, β-chloro-D-alanine]
[1]; CDA 20 mg/L
  Resistance (growth) on LB agar plate: +
[1]; CDA 50 mg/L
  Resistance (growth) on LB agar plate: +
[1]; CDA 100 mg/L
  Resistance (growth) on LB agar plate: +
[1]; all CDA concentrations tested (up to 100 mg/L), LB agar
  Growth of BG3594 with alr-expressing plasmid in presence of CDA: allows growth
[2]; CDA 20 mg/L
  Resistance (growth) on LB agar plate: +
[2]; CDA 50 mg/L
  Resistance (growth) on LB agar plate: −**
[2]; CDA 100 mg/L
  Resistance (growth) on LB agar plate: −
[2]; concentration of 20 mg/L
  Growth of BG3594 in presence of CDA: can still grow
[2]; concentration of 50 mg/L
  Growth of BG3594 in presence of CDA: totally inhibited
